{"source": "ChEMBL document CHEMBL2046363", "about": "“Discovery and structure-activity relationship of 2,6-disubstituted pyrazines, potent and selective inhibitors of protein kinase CK2” (Bioorg Med Chem Lett, 2012)", "key": {"[1]": {"test": "Inhibition of CK2"}, "[2]": {"test": "Inhibition of CK2 expressed in HEK293 cells by SRE-luciferase reporter gene assay", "assay_type": "cell-based"}, "[3]": {"test": "Selectivity ratio of IC50 for CAMK2 to CK2"}, "[4]": {"test": "Selectivity ratio of IC50 for PKA to CK2"}, "[5]": {"test": "Selectivity ratio of IC50 for S6 kinase to CK2"}, "[6]": {"test": "Selectivity ratio of IC50 for PKC to CK2"}, "[7]": {"test": "Selectivity ratio of IC50 for p38beta2 to CK2"}, "Rattus norvegicus": {"tested_on": "Rattus norvegicus", "test": "Antinephritic activity in anti-GBM glomerulonephritis Wistar-Kyoto rat model assessed as improved proteinuria at 15 mg/kg, ip qd measured at day 7 by pyrogallol Red method", "assay_type": "functional, organism-based", "design": "dose 15 mg/kg"}, "[8]": {"test": "Selectivity ratio of IC50 for ERK to CK2"}}, "note": "The source made the active and inactive calls. The rule behind the calls is not given here.", "data": [{"compound": "N#Cc1ccc2cnn(-c3cncc(-n4ccc(CC(=O)O)c4)n3)c2c1", "values": [{"measurement": "IC50", "setting": "[1]", "result": 0.022, "unit": "µM"}, {"measurement": "IC50", "setting": "[2]", "result": 11, "unit": "µM"}]}, {"compound": "O=C(O)Cc1ccn(-c2cncc(-n3ncc4ccc(NC5CCCC5)cc43)n2)c1", "values": [{"measurement": "Ratio IC50", "setting": "[3]", "result": 162}, {"measurement": "Ratio IC50", "setting": "[4]", "result": "> 740"}, {"measurement": "IC50", "setting": "[1]", "result": 0.0093, "unit": "µM"}, {"measurement": "Ratio IC50", "setting": "[5]", "result": 626}, {"measurement": "Ratio IC50", "setting": "[6]", "result": "> 740"}, {"measurement": "Ratio IC50", "setting": "[7]", "result": "> 740"}, {"measurement": "Activity", "setting": "Rattus norvegicus", "result": "Active"}, {"measurement": "Ratio IC50", "setting": "[8]", "result": "> 740"}, {"measurement": "IC50", "setting": "[2]", "result": 0.9, "unit": "µM"}]}, {"compound": "O=C(O)Cc1ccn(-c2cncc(-n3ncc4ccccc43)n2)c1", "values": [{"measurement": "IC50", "setting": "[1]", "result": 0.03, "unit": "µM"}]}, {"compound": "O=C(O)Cc1ccn(-c2cncc(-n3ccc4ccccc43)n2)c1", "values": [{"measurement": "IC50", "setting": "[1]", "result": 0.1, "unit": "µM"}]}, {"compound": "O=C(O)Cc1cn(-c2cncc(-n3cccc3)n2)c2ccccc12", "values": [{"measurement": "IC50", "setting": "[1]", "result": 3, "unit": "µM"}]}, {"compound": "O=C(O)Cc1cn(-c2cncc(-n3ccc4ccccc43)n2)c2ccccc12", "values": [{"measurement": "IC50", "setting": "[1]", "result": 0.5, "unit": "µM"}]}, {"compound": "O=C(O)Cc1c2ccccc2n2c1[nH]c(=O)c1ccccc12", "values": [{"measurement": "IC50", "setting": "[1]", "result": 0.08, "unit": "µM"}]}, {"compound": "O=C(O)Cc1ccn(-c2cncc(-n3ncc4ccc(Cl)cc43)n2)c1", "values": [{"measurement": "IC50", "setting": "[1]", "result": 0.016, "unit": "µM"}, {"measurement": "IC50", "setting": "[2]", "result": 4, "unit": "µM"}]}, {"compound": "Nc1ccc2cnn(-c3cncc(-n4ccc(CC(=O)O)c4)n3)c2c1", "values": [{"measurement": "IC50", "setting": "[1]", "result": 0.025, "unit": "µM"}]}, {"compound": "O=C(O)Cc1ccn(-c2cncc(-n3cnc4ccccc43)n2)c1", "values": [{"measurement": "IC50", "setting": "[1]", "result": 0.1, "unit": "µM"}]}, {"compound": "CC(C)Nc1ccc2cnn(-c3cncc(-n4ccc(CC(=O)O)c4)n3)c2c1", "values": [{"measurement": "IC50", "setting": "[1]", "result": 0.008, "unit": "µM"}, {"measurement": "IC50", "setting": "[2]", "result": 1, "unit": "µM"}]}, {"compound": "Nc1nn(-c2cncc(-n3ccc(CC(=O)O)c3)n2)c2ccccc12", "values": [{"measurement": "IC50", "setting": "[1]", "result": 0.008, "unit": "µM"}, {"measurement": "IC50", "setting": "[2]", "result": 15, "unit": "µM"}]}, {"compound": "Cc1cc(O)c2c(c1)C(=O)c1cc(O)cc(O)c1C2=O", "note": "[EMODIN]", "values": [{"measurement": "IC50", "setting": "[1]", "result": 2, "unit": "µM"}]}, {"compound": "O=C(O)Cc1ccn(-c2cncc(-n3nc(Cl)c4ccccc43)n2)c1", "values": [{"measurement": "IC50", "setting": "[1]", "result": 0.012, "unit": "µM"}, {"measurement": "IC50", "setting": "[2]", "result": 30, "unit": "µM"}]}, {"compound": "O=C(O)Cc1ccn(-c2cncc(N3CCc4ccccc43)n2)c1", "values": [{"measurement": "IC50", "setting": "[1]", "result": 0.05, "unit": "µM"}]}, {"compound": "O=C(O)Cc1cn(-c2cncc(-n3cc(CC(=O)O)c4ccccc43)n2)c2ccccc12", "values": [{"measurement": "IC50", "setting": "[1]", "result": 0.3, "unit": "µM"}]}]}
